One test has as its system crib-biting horses. Nature of the test: Rate of crib-biting in horses after drug treatment. The format is in vivo, horse. On the procedure:
Horses were admitted to the Large Animal Hospital of Tufts University School of Veterinary Medicine or were tested in their home barn. Cribbing straps and food were removed prior to testing. Control rates of crib-biting were observed and recorded for 5 minute intervals for one hour or more after an intravenous injection of 0.15 M saline. Test drugs were administered orally (by gavage) or by injection into the jugular vein. Solutions were made up with physiological saline and sterilized by filtration through a 0.2 micron filter (Millipore).
For the experimental data shown in FIG. 1, after establishment of a stable control rate of approximately 10 crib-bites per minute, 50 mg of D-methadone-HCl in 25 ml saline was injected i.v. In FIG. 1, the cumulative number of crib-bites was plotted against time as was the rate per 5 minute interval (Shuster, L. and N. H. Dodman, pp. 185-202, In Psychopharmacology of Animal Behavior Disorders, (N. H. Dodman and L. Shuster, eds.), Blackwell Scientific, Malden, Mass., 1998). […] The control rate then resumed during the next 80 minutes of observation. Horses were observed continuously during scoring for side effects that might be attributed to the treatment. These included changes in posture, disposition and motor activity. See also Table 1.

The subject of a further test is stall-walking horse. As to the kind of experiment: Stall-walking (turning) in a horse, circuits around the stall. It counts as in vivo. As to conditions: horse Full Circle (turning), 1.0 mg/kg, iv. On the procedure: Dextromethorphan-HBr, 1.0 mg/kg i.v., was injected after 60 minutes of control observations, to test its effect on a stall-walking horse. When measuring “stall walking” locomotor activity, each circuit around the stall was scored as one rotation. Cumulative rotations per 5 minute interval were plotted against time to establish the rate of circling. The results of the experiment are plotted in FIG. 2. See also Table 1.

Another test relates to BALB/c male mice. Nature of the test: Mouse model for pruritus: scratching after compound 48/80. The format is in vivo. On the procedure: The animals used were BALB/c male mice, weighing 27-33 g. One mouse was used per compound tested, except for two control mice receiving saline; two different mice were tested with (+) methadone, each with a different dose. Compound 48/80 (Kuraishi, Y. et al., European Journal of Pharmacology 275:229-233, 1995), 0.5 mg/ml in saline, was injected subcutaneously in a volume of 0.1 ml, between the shoulder blades of the mouse. Test compounds, dissolved in saline, were injected intraperitoneally in a volume of 0.1 ml per 10 g, either 10 minutes before or 30 minutes after injection of compound 48/80. The cumulative number of scratches with a hind leg were recorded at 10 minute intervals for 60 minutes following the injection of compound 48/80. See Tables 2 and 3, as well as FIGS. 4, 5A and 5B, showing the effectiveness of the compounds tested: naltrexone, dextromethorphan, (+) methadone, haloperidol, and (+) naloxone.

Setting [1] is: 10 mg/kg i.p. 10 minutes before 48/80, 10 minutes after 48/80.
Where [2] appears, read: 10 mg/kg i.p. 10 minutes before 48/80, 20 minutes after 48/80.
Where [3] appears, read: 10 mg/kg i.p. 10 minutes before 48/80, 30 minutes after 48/80.
The mark [4] stands for this setting: 10 mg/kg i.p. 10 minutes before 48/80, 40 minutes after 48/80.
[5] abbreviates: 10 mg/kg i.p. 10 minutes before 48/80, 50 minutes after 48/80.
The mark [6] stands for this setting: 10 mg/kg i.p. 10 minutes before 48/80, 60 minutes after 48/80.
[7] abbreviates: 20 mg/kg i.p. 30 minutes after 48/80, time 10 minutes (before dosing).
The mark [8] stands for this setting: 20 mg/kg i.p. 30 minutes after 48/80, time 20 minutes (before dosing).
Where [9] appears, read: 20 mg/kg i.p. 30 minutes after 48/80, time 30 minutes.
[10] abbreviates: 20 mg/kg i.p. 30 minutes after 48/80, time 40 minutes.
Where [11] appears, read: 20 mg/kg i.p. 30 minutes after 48/80, time 50 minutes.
The mark [12] stands for this setting: 20 mg/kg i.p. 30 minutes after 48/80, time 60 minutes.
[13] abbreviates: horse CB, 0.2 mg/kg, iv., before treatment 8.2.
The mark [14] stands for this setting: horse CB, 0.2 mg/kg, iv., before treatment 8.8.

In the case of `COc1ccc2c(c1)[C@]13CCCC[C@@H]1[C@H](C2)N(C)CC3` [Dextromethorphan], the “Duration of Effect” value was determined as 35 min with crib-biting horses (horse CB, 1.0 mg/kg, i.v.); 90 min in the test with crib-biting horses (horse CB, 1.0 mg/kg, p.o.); 100 min in the test with crib-biting horses (horse Frito, 3.2 mg/kg p.o.); 45 min in the test with stall-walking horse. Moreover, the lag before effect result is “(no lag)” with crib-biting horses (horse CB, 1.0 mg/kg, i.v.); “(35 min lag)” in the test with crib-biting horses (horse CB, 1.0 mg/kg, p.o.); “(30 min lag)” in the test on crib-biting horses (horse Frito, 3.2 mg/kg p.o.); “(no lag)” in the test on stall-walking horse. In addition, the “Crib-biting Frequency number per minute After treatment” value in the test on crib-biting horses (horse CB, 1.0 mg/kg, i.v., before treatment 7.6) was 0.3 number per minute; with crib-biting horses (horse CB, 1.0 mg/kg, p.o., before treatment 8), 1.7 number per minute; in the test on crib-biting horses (horse Frito, 3.2 mg/kg p.o., before treatment 3.5), 1.8 number per minute. The “turns per min. After treatment” value with stall-walking horse (before treatment 3.5 turns per min.) is given as “.3 turns turns per min”. Further, the “Cumulative Scratches” value in the test with BALB/c male mice (setting [1]) is listed as 1; with BALB/c male mice (setting [2]), 57; with BALB/c male mice (setting [3]), 105; in the test with BALB/c male mice (setting [4]) it was 157; in the test on BALB/c male mice (setting [5]) it was 182; with BALB/c male mice (setting [6]), 192. The “Cumulative Scratches” value with BALB/c male mice (setting [7]) is given as 47; with BALB/c male mice (setting [8]), 125; with BALB/c male mice (setting [9]) it was 158; with BALB/c male mice (setting [10]), 171; with BALB/c male mice (setting [11]), 178; with BALB/c male mice (setting [12]), 185.
(−) naloxone: in the test on crib-biting horses (horse CB, .04 mg/kg, i.v.), the “Duration of Effect” value stood at 65 min and the lag before effect entry is “(10 min lag)”. For the same compound, in the test on crib-biting horses (horse CB, .04 mg/kg, i.v., before treatment 12), the “Crib-biting Frequency number per minute After treatment” value amounted to 0.1 number per minute.
In the case of `CNC1(c2ccccc2Cl)CCCCC1=O` (stereo not drawn) [ketamine], in the test with crib-biting horses (setting [13]), the “Crib-biting Frequency number per minute After treatment” value was 1.3 number per minute, the “Duration of Effect” value was determined as 50 min and the lag before effect entry was “(no lag)”.
Consider `CCC(=O)C(C[C@H](C)N(C)C)(c1ccccc1)c1ccccc1` [(+) Methadone], for which the “rate of crib-bites per 5 minute interval” value with crib-biting horses (50 mg in 25 ml saline i.v., control rate approximately 10 crib-bites per minute, resumed during the next 80 minutes) was “decreased between the second and the fifth 5-minute interval following injection”. In addition, the “Crib-biting Frequency number per minute After treatment” value is 2.6 number per minute with crib-biting horses (setting [14]) and 5.5 number per minute with crib-biting horses (horse CB, .01 mg/kg, iv., before treatment 8.2). The “Duration of Effect” value was found to be 20 min in the test on crib-biting horses (setting [14]) and 10 min in the test with crib-biting horses (horse CB, .01 mg/kg, iv.). Further, the lag before effect entry with crib-biting horses (setting [14]) is on record as “(10 min lag)”. Further, the “Cumulative Scratches” value in the test on BALB/c male mice (5 mg/kg i.p. 30 minutes after 48/80, time 10 minutes (before dosing)) came to 0; in the test on BALB/c male mice (5 mg/kg i.p. 30 minutes after 48/80, time 20 minutes (before dosing)) it was 56; in the test on BALB/c male mice (5 mg/kg i.p. 30 minutes after 48/80, time 30 minutes) it was 114; with BALB/c male mice (5 mg/kg i.p. 30 minutes after 48/80, time 40 minutes), 145; in the test with BALB/c male mice (5 mg/kg i.p. 30 minutes after 48/80, time 50 minutes) it was 210; in the test on BALB/c male mice (5 mg/kg i.p. 30 minutes after 48/80, time 60 minutes), 267. Moreover, the “Cumulative Scratches” value in the test with BALB/c male mice (setting [1]), in the test on BALB/c male mice (setting [2]), in the test on BALB/c male mice (setting [3]), in the test with BALB/c male mice (setting [4]), in the test with BALB/c male mice (setting [5]) and with BALB/c male mice (setting [6]) was 0 throughout. Moreover, the “Cumulative Scratches” value stood at 6 with BALB/c male mice (10 mg/kg i.p. 30 minutes after 48/80, time 10 minutes (before dosing)); 38 in the test with BALB/c male mice (10 mg/kg i.p. 30 minutes after 48/80, time 20 minutes (before dosing)); 106 in the test with BALB/c male mice (10 mg/kg i.p. 30 minutes after 48/80, time 30 minutes); 107 in the test on BALB/c male mice (10 mg/kg i.p. 30 minutes after 48/80, time 40 minutes); 107 in the test with BALB/c male mice (10 mg/kg i.p. 30 minutes after 48/80, time 50 minutes); 107 in the test with BALB/c male mice (10 mg/kg i.p. 30 minutes after 48/80, time 60 minutes).
For `C=CCN1CC[C@]23c4c5ccc(O)c4O[C@H]2C(=O)CC[C@]3(O)[C@H]1C5` [(+) naloxone], the “Duration of Effect” value in the test on crib-biting horses (horse CB, 0.12 mg/kg, iv.) was determined as 60 min; with crib-biting horses (horse CB, 0.18 mg/kg, i.v.) it was 60 min. Further, the lag before effect result is on record as “(30 min lag)” in the test on crib-biting horses (horse CB, 0.12 mg/kg, iv.) and “(no lag)” in the test on crib-biting horses (horse CB, 0.18 mg/kg, i.v.). In addition, the “Crib-biting Frequency number per minute After treatment” value with crib-biting horses (horse CB, 0.12 mg/kg, iv., before treatment 10) stood at 6.6 number per minute; in the test with crib-biting horses (horse CB, 0.18 mg/kg, i.v., before treatment 9.2), 0.8 number per minute. Further, the “Cumulative Scratches” value is 4 in the test on BALB/c male mice (setting [7]); 48 with BALB/c male mice (setting [8]); 105 with BALB/c male mice (setting [9]); 112 in the test on BALB/c male mice (setting [10]); 146 in the test on BALB/c male mice (setting [11]); 175 with BALB/c male mice (setting [12]).
For the compound `O=C(CCCN1CCC(O)(c2ccc(Cl)cc2)CC1)c1ccc(F)cc1` [Haloperidol], the “Cumulative Scratches” value came out at 2 in the test on BALB/c male mice (2.0 mg/kg i.p. 30 minutes after 48/80, time 10 minutes (before dosing)); 87 in the test on BALB/c male mice (2.0 mg/kg i.p. 30 minutes after 48/80, time 20 minutes (before dosing)); 108 with BALB/c male mice (2.0 mg/kg i.p. 30 minutes after 48/80, time 30 minutes); 137 with BALB/c male mice (2.0 mg/kg i.p. 30 minutes after 48/80, time 40 minutes); 137 in the test on BALB/c male mice (2.0 mg/kg i.p. 30 minutes after 48/80, time 50 minutes); 142 with BALB/c male mice (2.0 mg/kg i.p. 30 minutes after 48/80, time 60 minutes).
Consider `O=C1CC[C@@]2(O)[C@H]3Cc4ccc(O)c5c4[C@@]2(CCN3CC2CC2)[C@H]1O5` [Naltrexone], for which the “Cumulative Scratches” value in the test with BALB/c male mice (setting [1]) was 0; in the test on BALB/c male mice (setting [2]), 0; in the test on BALB/c male mice (setting [3]) it was 0; in the test with BALB/c male mice (setting [4]), 1; in the test on BALB/c male mice (setting [5]), 61; with BALB/c male mice (setting [6]) it was 73.

These data come from patent US6500838B2, “Treatment of stereotypic, self-injurious and compulsive behaviors in man and animals using antagonists of NMDA receptors” (The Trustees of Tufts College, priority 1998, dated 2002).
